This note sets out measurements from ChEMBL document CHEMBL1142641, “New isomalabaricane derivatives from a new species of Jaspis sponge collected at the Vanuatu islands” (J Nat Prod, 2000).

Usually IC50 stands for the concentration that inhibits the measured activity by half. Read a low IC50 as greater potency.

The test in a line: Cytotoxicity against mouse […] cells. Format: functional, cell-based.
Turning to `COC(=O)[C@]1(C)[C@@H]2CC[C@]3(C)/C(=C(/C)C=O)C(=O)C[C@@H]3[C@@]2(C)CC[C@H]1OC(C)=O`, the IC50 was > 3.3 µg/mL. As for `COC(=O)[C@]1(C)[C@@H]2CC[C@]3(C)\C(=C(C)/C=C/C=C(C)/C=C/C=O)C(=O)C[C@@H]3[C@@]2(C)CC[C@H]1OC(C)=O`, the 50% inhibitory concentration (IC50) was > 3.3 µg/mL. The same measure for `COC(=O)[C@]1(C)[C@@H]2CC[C@]3(C)\C(=C(C)/C=C/C=C(\C)C=O)C(=O)C[C@@H]3[C@@]2(C)CC[C@H]1OC(C)=O`: > 3.3 µg/mL; for `COC(=O)[C@]1(C)[C@@H]2CC[C@]3(C)\C(=C(C)/C=C/C=C(\C)C(/C=C/C(C)(C)O)OC)C(=O)C[C@@H]3[C@@]2(C)CC[C@H]1OC(C)=O` (some centres not stated) [GLOBOSTELLATIC ACD B METHYL ESTER]: > 3.3 µg/mL. The same measure for `COC(=O)[C@]1(C)[C@@H]2CC[C@]3(C)\C(=C(C)/C=C/C=C(C)/C=C/C(OC)C(C)(C)O)C(=O)C[C@@H]3[C@@]2(C)CC[C@H]1OC(C)=O` (some centres not stated) [GLOBOSTELLATIC ACD C METHYL ESTER]: > 3.3 µg/mL; for `COC(=O)/C(C)=C1\C(=O)C[C@@H]2[C@@]3(C)CC[C@@H](OC(C)=O)[C@](C)(C(=O)OC)[C@@H]3CC[C@]12C` [JASPIFEROIC ACID A DIMETHYL ESTER]: > 3.3 µg/mL; for `COC(=O)/C=C/C(C)=C1/C(=O)C[C@@H]2[C@@]3(C)CC[C@@H](OC(C)=O)[C@](C)(C(=O)OC)[C@@H]3CC[C@]12C` [JASPIFEROIC ACID B DIMETHYL ESTER]: > 3.3 µg/mL.
